How the values were obtained:
Type in all cases: cell-based, human
[1] = system: hMSC; assay: hMSC proliferation (normalized cell number C72/C0) on SAM array spots presenting GRGDSP; details: hMSCs, 72 hours
Description: (§1) For cell assays on SAM arrays, HUVECs or hMSCs were removed from plastic culture plates using a 0.05% trypsin solution, resuspended in media, and seeded onto SAM arrays in sterile polystyrene Petri dishes. After allowing cells to attach for ˜1 hour in a humidified incubator at 37° C. and 5% CO2, arrays were dipped in warm media to remove loosely attached cells and then transferred to a rectangular multidish (Thermo Scientific/Nunc, Rochester, N.Y.) with warm media and imaged ˜4 hours later serving as “0 hr.” For the initial time point and subsequent time-lapse imaging, arrays were placed on an incubated stage and each array spot was imaged every 15 minutes for 72 hours. […]
(§2) Relative cell attachment at 0 hrs was quantified by counting the number of attached cells per spot and normalizing cell numbers to maximal attachment conditions. Normalized cell number was calculated by dividing the number of cells per spot at 72 hours (C72) to the cell number observed on the same spot at 0 hrs (C0). Relative proliferation was determined by dividing normalized cell numbers at 72 hours by the maximum average normalized cell number observed across GRGDSP density conditions. Similarly, relative spreading was determined by dividing projected cell areas to the maximum average projected cell area observed across GRGDSP density conditions. […]

[2] = system: hMSC; assay: hMSC spreading (projected cell area) on SAM array spots presenting GRGDSP; details: hMSCs
Description: as §1, §2

[3] = system: HUVEC; assay: HUVEC migration (single cell tracking) on SAM array spots presenting GRGDSP; details: HUVECs
Description: as §1, §2

[4] = system: HUVEC; assay: HUVEC proliferation (Click-it EdU) in response to soluble morphogens on SAM arrays; details: increased immobilized GRGDSP density
Description: Specifically, SAM array spots presenting mixed ligands were prepared as described above. SAM arrays presenting varied ligand densities of covalently immobilized VEGF receptor-binding peptide ([sequence], here referred to as “VR-BP”; SEQ ID NO:17) and varied ligand densities of the fibronectin-derived cell adhesion peptide (GRGDSP, SEQ ID NO:18) were used to probe for changes in HUVEC attachment, proliferation and tubulogenesis. Control over individual ligand density was achieved by mixing scrambled VR-BP and mutant GRGESP (SEQ ID NO:19) with functional VR-BP or GRGDSP (SEQ ID NO:18) peptides, respectively. Therefore, in a typical SAM array, SAMs were locally formed within spots using an alkanethiolate mixture of 94% HS—C11-EG3-OH and 6% HS—C11-EG6-COOH to create substrates with a total of 6% carboxylate groups for peptide conjugation. Next, to create a spot presenting 5% GRGDSP (SEQ ID NO:18) and 1% VR-BP, a 300 μM peptide solution with 250 μM GRGDSP (SEQ ID NO:18) and 50 μM VR-BP was used during peptide conjugation. Likewise, to create a spot presenting 2.5% GRGDSP (SEQ ID NO:18) and 0.1% VR-BP, a 300 μM peptide solution with 125 μM GRGDSP (SEQ ID NO:18), 125 μM GRGESP (SEQ ID NO:19), 5 μM VR-BP and 45 μM scrambled peptide was used during peptide conjugation. In this manner, the amount of active ligand could be varied between spots while holding the total ligand content constant.
Passage 2 HUVECs were expanded at low cell density (less than 70% confluence) on tissue culture polystyrene to no more than 14 population doublings. During HUVEC expansion, cells were cultured in medium 199 (m199, Mediatech, Manassas, Va.) containing 1% penicillin/streptomycin (Hyclone, Logan, Utah) and supplemented with Clonetics EGM-2 BullitKit (Lonza Walkersville, Inc., Walkersville, Md.) containing Hydrocortisone, hFGF-B, VEGF, R3-IGF-1, Ascorbic Acid, Heparin, FBS, hEGF, GA-1000 growth supplements. […]

[5] = system: HUVEC; assay: HUVEC spreading (projected cell area) on SAM array spots presenting GRGDSP
Description: For cell assays on SAM arrays, HUVECs or hMSCs were removed from plastic culture plates using a 0.05% trypsin solution, resuspended in media, and seeded onto SAM arrays in sterile polystyrene Petri dishes. After allowing cells to attach for ˜1 hour in a humidified incubator at 37° C. and 5% CO2, arrays were dipped in warm media to remove loosely attached cells and then transferred to a rectangular multidish (Thermo Scientific/Nunc, Rochester, N.Y.) with warm media and imaged ˜4 hours later serving as “0 hr.” For the initial time point and subsequent time-lapse imaging, arrays were placed on an incubated stage and each array spot was imaged every 15 minutes for 72 hours. Furthermore, it is important to point out that all cell experiments for comparison between HUVECs and hMSCs were run simultaneously.
For immunocytochemistry, at 24 and 72 hour time points during the time-lapse experiment, staining for the actin cytoskeleton and focal adhesion markers was performed as directed by the manufacturer (Catalog No. FAK100, Millipore, Billerica, Mass.). […]
Relative cell attachment at 0 hrs was quantified by counting the number of attached cells per spot and normalizing cell numbers to maximal attachment conditions. Normalized cell number was calculated by dividing the number of cells per spot at 72 hours (C72) to the cell number observed on the same spot at 0 hrs (C0). Relative proliferation was determined by dividing normalized cell numbers at 72 hours by the maximum average normalized cell number observed across GRGDSP density conditions. Similarly, relative spreading was determined by dividing projected cell areas to the maximum average projected cell area observed across GRGDSP density conditions. […] For each spot, average cell projected area was calculated by dividing the thresholded actin staining (red channel) by the total number of nuclei in the same spot. […]
Specifically, SAM arrays were prepared as described above. […] Cell spreading was determined by culturing HUVECs and hMSCs for 24 hours and 72 hours and analyzed by cell staining and quantified by measuring projected cell area. […]

[6] = system: hMSC; assay: hMSC migration (single cell tracking) on SAM array spots presenting GRGDSP; details: hMSCs, each ligand density condition (0.06%-5%)
Description: as §1, §2

GRGDSP
maximum normalized cell number (C72/C0) ([1]; across GRGDSP densities): 6.1 | proliferation ([1]; below 0.06% GRGDSP): no proliferation | maximal projected cell area ([2]; 24 hrs, SAM spots with 1.6% and 5% GRGDSP): greater than 4000 μm^2 | change in projected cell area from 24 to 72 hrs ([2]; across several GRGDSP densities): slight decreases | fraction of migrating cells ([3]; high GRGDSP densities): virtually no cells migrating | fraction of migrating cells ([3]; lower GRGDSP densities): over 30% | HUVEC proliferation dependence on ligand density [4]: increased proliferation | maximal HUVEC spreading (projected cell area) ([5]; 72 hours, SAM spots with 1.67% and 5% GRGDSP): 6000 μm^2 | maximal projected cell area ([5]; HUVECs, 24 hrs, SAM spots with 1.6% and 5% GRGDSP): greater than 4000 μm^2 | change in projected cell area from 24 to 72 hrs ([5]; HUVECs, all GRGDSP densities above 0.06%): increasing their projected cell area | fraction of migrating cells [6]: greater than 37%

Reference: patent US8642516B2, “Chemically-defined arrays for screening cell-substrate interactions” (Wisconsin Alumni Research Foundation, priority 2012, dated 2014)
